Data on two compounds can be found in paper PMC9437101, “Curcumin-based-fluorescent probes targeting ALDH1A3 as a promising tool for glioblastoma precision surgery and early diagnosis” (Communications Biology, 2022).

For one experiment, the target named is T1, ALDH1A2 (Homo sapiens, UniProt O94788).
T1 construct: E. coli BL21 (DE3) were transformed with the full-length expression vector of each isoform; His-tag; made in house; host or cells: E. coli BL21 (DE3)
T1 sequence (O94788 1-518): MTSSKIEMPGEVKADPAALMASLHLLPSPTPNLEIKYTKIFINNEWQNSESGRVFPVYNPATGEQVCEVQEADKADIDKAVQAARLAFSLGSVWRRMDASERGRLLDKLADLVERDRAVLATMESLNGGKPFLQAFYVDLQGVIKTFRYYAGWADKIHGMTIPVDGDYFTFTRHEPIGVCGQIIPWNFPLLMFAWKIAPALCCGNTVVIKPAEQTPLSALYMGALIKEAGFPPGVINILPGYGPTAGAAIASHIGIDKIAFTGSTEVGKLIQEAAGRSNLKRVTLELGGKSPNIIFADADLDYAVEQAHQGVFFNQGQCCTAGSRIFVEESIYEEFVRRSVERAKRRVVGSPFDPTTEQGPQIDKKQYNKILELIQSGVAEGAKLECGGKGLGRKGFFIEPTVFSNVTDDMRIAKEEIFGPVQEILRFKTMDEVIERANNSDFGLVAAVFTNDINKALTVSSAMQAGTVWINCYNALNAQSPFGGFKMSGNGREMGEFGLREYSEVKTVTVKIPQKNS
Briefly: Kd evaluation by fluorescence emission assay. It is filed as binding. The conditions noted are these: probe 10 μM, ALDH1A2 100 to 1.1719 μM. How it is done:
(§1) To evaluate the Kd constant between the two probes and the isoenzymes ALDH1A1, ALDH1A2 and ALDH1A3A we performed a fluorescence emission assay. We used a Tecan Spark with Greiner Bio-One 96-UV-Transparent Microplates. A single reaction was performed in a total volume of 100 μl per well containing 20 mM Tris HCl pH 8.0, 1 mM β-mercaptoethanol, 150 mM KCl, 500 μM NAD^+ and 10 μM fluorescent probe with a 5% DMSO final concentration, in the presence of different ALDH1As concentrations, from 100 μM to 1.1719 μM. Each reaction mix was preincubated for 10 min at 25 °C before the analysis. The obtained raw data were analyzed using GraphPad to calculate Kd values.

A further experiment concerns the target T2, ALDH1A1 (Homo sapiens, UniProt P00352).
T2 construct: E. coli BL21 (DE3) were transformed with the full-length expression vector of each isoform; His-tag; made in house; host or cells: E. coli BL21 (DE3)
T2 sequence (P00352 1-501): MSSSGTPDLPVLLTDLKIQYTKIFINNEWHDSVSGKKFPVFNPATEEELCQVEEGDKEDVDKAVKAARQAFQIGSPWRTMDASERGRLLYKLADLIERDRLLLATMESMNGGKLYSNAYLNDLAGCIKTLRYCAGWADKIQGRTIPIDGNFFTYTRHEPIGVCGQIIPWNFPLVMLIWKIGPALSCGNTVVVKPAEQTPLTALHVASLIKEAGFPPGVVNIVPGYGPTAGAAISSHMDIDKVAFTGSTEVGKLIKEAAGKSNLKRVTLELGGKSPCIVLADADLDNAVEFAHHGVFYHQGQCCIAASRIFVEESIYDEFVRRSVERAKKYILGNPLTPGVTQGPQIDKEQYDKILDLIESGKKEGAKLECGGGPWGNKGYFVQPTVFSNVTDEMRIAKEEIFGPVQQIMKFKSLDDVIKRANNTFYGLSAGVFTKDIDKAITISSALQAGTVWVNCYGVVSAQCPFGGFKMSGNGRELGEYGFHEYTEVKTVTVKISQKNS
Briefly: Kd evaluation by fluorescence emission assay. It is filed as binding. Particulars: probe 10 μM, ALDH1A1 100 to 1.1719 μM. Here is the method: as §1

In experiment [1] the target is T3, ALDH1A3 (Homo sapiens, UniProt P47895).
T3 construct: E. coli BL21 (DE3) were transformed with the full-length expression vector of each isoform; His-tag; made in house; host or cells: E. coli BL21 (DE3)
T3 sequence (P47895 1-512): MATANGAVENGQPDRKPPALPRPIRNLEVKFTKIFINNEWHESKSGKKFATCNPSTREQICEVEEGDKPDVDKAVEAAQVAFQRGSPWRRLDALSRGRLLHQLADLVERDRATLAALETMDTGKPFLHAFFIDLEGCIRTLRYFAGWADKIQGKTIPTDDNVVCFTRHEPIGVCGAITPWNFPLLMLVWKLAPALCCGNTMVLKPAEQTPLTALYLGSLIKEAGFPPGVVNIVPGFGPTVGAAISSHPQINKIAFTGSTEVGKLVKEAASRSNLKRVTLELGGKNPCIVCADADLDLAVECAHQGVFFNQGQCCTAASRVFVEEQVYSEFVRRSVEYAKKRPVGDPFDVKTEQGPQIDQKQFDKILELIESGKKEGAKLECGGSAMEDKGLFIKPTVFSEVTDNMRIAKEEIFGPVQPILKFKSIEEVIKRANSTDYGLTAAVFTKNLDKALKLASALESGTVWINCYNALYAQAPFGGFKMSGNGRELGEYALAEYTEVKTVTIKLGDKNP
Briefly: Kd evaluation by fluorescence emission assay. It is filed as binding. The conditions noted are these: probe 10 μM, ALDH1A3 100 to 1.1719 μM. How it is done: as §1

Experiment [2] deals with T3, ALDH1A3. As to the kind of experiment: LC-HRMS analysis of isoenzyme activity in presence of probe. The conditions noted are these: for oxidation of probe to carboxylic derivative / substrate behaviour: 1 h incubation, LC-HRMS. It is filed as biochemical. How it is done:
These analyses were carried out by using UPLC-HRMS procedure with Vanquish UPLC system coupled to a Thermo Scientific Q-Exactive Plus, operating in negative electrospray ionization mode. The chromatographic separation was carried out using a Phenomenex Synergi 4 µ Polar-RP 80 A (150 × 2 mm) equipped with a Phenomenex Polar-RP (4 mm × 2 mm) security guard column. The mobile phase consisted of A: acetonitrile 0.1% formic acid and B: 0.1% formic acid. We used a linear elution gradient, starting from 80% of A to 5% A in 3 min, 3 min at 5% A, an equilibration of 4 min for a total run time of 10.00 min, at 300 µl/min flow rate. The autosampler temperature was set at 15 °C, the injection volume was 5 µl and column was maintained at 40 °C. The heated electrospray ionization source was used, with a spray voltage of […], with a capillary temperature of 300 °C, a heater temperature of 350 °C, a sheat gas flow of 45 arbitrary units (AU), an auxiliary gas flow of 10 AU and a sweep gas flow of 0 AU. During the Parallel Reaction Monitoring acquisition in negative ion mode, the instrument operated at 17,500 resolution in presence of the inclusion list (m/z = 596.20384 and m/z = 612.19875 for Probe 10 and Probe 10-COOH respectively; m/z = 534.18819 and m/z = 506.156888 for Probe 11 and Probe 11-COOH respectively) with an automatic gain control target of 2 × 10^5 charges and a maximum injection time of 100 ms. Before injecting the samples, the blanks in the list were analyzed and every biological sample was analyzed in duplicate. The biological samples analyzed were as follow: (1) Enzymatic assay Buffer; (2) Enzymatic assay Buffer + NAD^+; (3) Enzymatic assay Buffer + Probe 10 or Probe 11; (4) Enzymatic assay Buffer + ALDH1A1; (5) Enzymatic assay Buffer + ALDH1A2; (6) Enzymatic assay Buffer + ALDH1A3; (7) Enzymatic assay Buffer + ALDH1A1 + Probe 10 or Probe 11; (8) Enzymatic assay Buffer + ALDH1A2 + Probe 10 or Probe 11; (9) Enzymatic assay Buffer + ALDH1A3 + Probe 10 or Probe 11. All samples were diluted 1:1 with ACN, then 1:100 in ACN-Water 1:1 prior the LC-HRMS analysis.

Molecules are shown by their SMILES. Values joined by “and” are separate entries in the source; they are usually repeats but may differ in a detail not shown here. Identical values can stand only once.

As a reminder, the Kd is the constant that tells how readily two partners part at equilibrium. Read a low Kd as a tighter complex.

For `CCOC(=O)Cn1cc(COc2ccc(/C=C/C(=O)/C=C(O)/C=C/c3ccc(O)c(OC)c3)cc2OC)nn1` [Probe 11], the figures for the Kd on ALDH1A2, at ALDH1A1 and on ALDH1A3 [1] were 125 µM, 42.4 µM and 84.3 µM, respectively. The “oxidation of probe to carboxylic derivative / substrate behaviour” value on ALDH1A3 [2] is reported as “has not been shown to be a substrate”.

As for `COc1cc(/C=C/C(O)=C/C(=O)/C=C/c2ccc(OCc3cn(CCOc4ccc(C=O)cc4)nn3)c(OC)c2)ccc1O` [Probe 10], the dissociation constant (Kd) at ALDH1A2 was determined as 36.9 µM; at ALDH1A1 it was 31.1 µM; on ALDH1A3 [1], 38.2 µM. In addition, the “oxidation of probe to carboxylic derivative / substrate behaviour” value at ALDH1A3 [2] is given as “no oxidation could be detected”. Moreover, on ALDH1A3 [2] (ALDH1A3, 1 h), the “AREA TIC of Probe 10” value is 17952906 and 17991269 and 13247597 and 14014206.
